For assay [1], the system named is GABAA receptor. Also on record: method as in Kim et al., 2000. To be noted: i.c.v. infusion 1 pmol/10 μL/h for 7 days; cortex and CA3 sub-region of the hippocampus; ref Kim et al., 2000; cited from earlier work.
Assay [2] deals with mice. Also on record: method as in Hashimoto et al. (2007). The conditions noted are these: ref Hashimoto et al. (2007), cited from earlier work; for effect on deficits in OR performance: repeated administration.
Assay [3] has as its system Long-Evans rats. The arrangement: method as in Redrobe et al., 2012. To be noted: same subPCP model; ref Redrobe et al., 2012; cited from earlier work.
Assay [4] has as its target T1, GABAB receptor (Rattus norvegicus, UniProt Q9Z0U4).
T1 construct: 12 μm coronal sections were collected from an area ranging from approximately +4.2 mm to +2.3 mm anterior to Bregma; from tissue; host or cells: rat brain cryosections, medial prefrontal cortex (prelimbic and infralimbic)
Put plainly: Ex vivo autoradiography, GABAB receptor saturation binding ([3H]CGP54626), medial prefrontal cortex. The conditions noted are these: rat medial prefrontal cortex; for GABAB receptors Bmax: [3H]CGP54626. The source says: (§1) Rats used in ex vivo autoradiography (EVA) experiments were randomly assigned to one of four experimental groups characterized by either subchronic saline or PCP (as described above) along with either vehicle or vortioxetine-infused food (1.8 g vortioxetine/kg food weight, as described in the attentional set shifting task). On day 8 of PCP withdrawal, rats were anesthetized using CO2 and killed by decapitation. Brains were quickly and gently removed from the skull, flash frozen on powdered dry ice, and stored at -20°C until sectioning. Later, 12 μm coronal sections were collected from an area ranging from approximately +4.2 mm to +2.3 mm anterior to Bregma ([Paxinos and Watson, 1998]) using a cryostat (MicroM, Germany) and were thaw-mounted on glass microscope slides. This range of coronal slices was chosen in order to study the prelimbic and infralimbic subregions of the medial prefrontal cortex, given the importance of these regions in tests of executive function such as the attentional set shifting task ([Ng et al., 2007]). After the tissue mounted on the microscope slides had dried thoroughly (in order to reduce damage from freezing), slides were packed into slide boxes with desiccator pellets, and stored at -20°C for use in EVA saturation binding and competition experiments.
(§2) Each of the EVA procedures used in this study are variations on a similar theme. On the day of an experiment, slide-boxes were defrosted under a constant stream of air at room temperature until the boxes were dry and equilibrated with the environment in terms of temperature. This step was undertaken in order to ensure brain tissue was not damaged by frosting due to a sudden change in humidity. Prior to any binding experiments, slides were preincubated in the appropriate preincubation buffer and dried at room temperature. Subsequently, tissue was incubated in an assay buffer containing a radioligand appropriate for the receptor of interest, then rinsed in assay buffer, and dried overnight in a vacuum desiccator. Specific information on the contents of the preincubation buffers, assay buffers and other assay conditions are listed in Table 2. Finally, slides were opposed to a tritium-sensitive phosphor screen (Fuji imaging plate, GE Healthcare, Pittsburgh, PA, United States) for 5 days before being read in a phosphorimager (Typhoon FLA7000, GE Healthcare). Analysis methods are listed below under statistical analyses.
(§3) In saturation binding experiments, the concentration of the relevant radioligand in the assay buffer was systematically varied in order to determine the KD and Bmax of the receptor in question. At each radioligand concentration, the non-specific binding was determined on a separate slide by including a high concentration of a non-radioactive competitor ligand in the assay buffer along with the radioligand. For GABAA receptor saturation binding experiments, [^3H]muscimol was examined in quarter log steps ranging from 0.56 to 300 nM. For GABAB receptor saturation binding experiments, [^3H]CGP54626 was examined in quarter log steps ranging from 0.17 to 100 nM.
For saturation binding studies, the primary dependent measures were pKD and Bmax. First, a standard curve was generated by measuring optical intensity from a slide of tritium standards (American Radiolabeled Chemicals, St. Louis, MO, United States) included in the slide cassette during exposure. A linear regression was performed to determine the relationship between intensity and bound radioactivity (measured on the standards in units of μCi/g). Next, average intensity values from the non-specific bound condition for each concentration of radioligand was subtracted from intensity values from the total bound condition to produce a measure of specific binding for each radioligand concentration. These optical intensity values were transformed into bound radioactivity (expressed as nCi/mg) measurements by interpolation from the standard curve noted above. […]

In assay [5] the target is GABAA receptor. Put plainly: Ex vivo autoradiography, GABAA receptor saturation binding ([3H]muscimol), medial prefrontal cortex. Also on record: species or system rat. The conditions noted are these: rat medial prefrontal cortex.
Excerpt: as §1, §2, §3
For saturation binding studies, the primary dependent measures were pKD and Bmax. […] A linear regression was performed to determine the relationship between intensity and bound radioactivity (measured on the standards in units of μCi/g). […] These optical intensity values were transformed into bound radioactivity (expressed as nCi/mg) measurements by interpolation from the standard curve noted above. […]

The test system of assay [6] is Long-Evans rats. As to the kind of experiment: Attentional set-shifting task (AST) in subchronic PCP-treated rats. It counts as in vivo, rat. To be noted: for trials to criterion vs vehicle/vehicle or PCP/vehicle, EDR discrimination / trials to criterion vs PCP/vehicle, ED discrimination: subPCP-treated rats. As for the experimental part: Subchronic PCP treatment: The subPCP administration regimen used in rats was conducted as described in ([Goetghebeur and Dias, 2009]), which is a reliable method for inducing deficits in our hands. Rats in the subPCP experiments received injections of 5 mg/mL PCP or vehicle (saline) s.c. at a 1 mL/kg injection volume twice per day for 7 days. […] The mouse subPCP regimen was conducted as described in [Pedersen et al. (2014)]. Briefly, mice received vehicle or PCP (1.3 mg/mL concentration, 10 mL/kg injection volume) s.c once per day for 14 days followed by a 7-day washout prior to experimentation.
Each test used male Long-Evans rats (Charles River, United States) aged 5–6 weeks when arriving at the research facility.
The attentional set-shifting test (AST) methods used here were adapted from [Goetghebeur and Dias (2009)]. The apparatus used for the AST test was a 44 cm × 64 cm × 30 cm black non-transparent Perspex test box, divided into 3 equal-sized areas (a starting area separated from a choice area subdivided in two). In the choice area, two 11 cm diameter terracotta pots were placed recessed into the box floor (with a 2 cm lip remaining above the floor) and separated by a divider. Odor (oils from The Body Shop®, United Kingdom) and media cues (not previously presented to the rats) were added to the pots.
Beginning on day 3 after the cessation of PCP administration, rats were subjected to a habituation period and trained to dig for a diet reward (half a Honey Loop cereal, Nestlé®) in terracotta pots filled with sawdust. On day 7 of PCP washout, rats were subjected to a single training session in which they were required to discriminate between two pots in order to find the reward. These discriminations were either based on differences in the digging media or the pot’s odor. On day 8 rats were presented with a series of increasingly difficult discriminations: a simple discrimination (SD), a compound discrimination (CD), two intra-dimensional shifts (ID1, ID2), an intra-dimensional shift reversal (ID2R), an extra-dimensional shift (ED) and an extra-dimensional shift reversal (EDR; see Table 1). Rats were required to meet a training criterion before moving on to a new discrimination type (for specifics, see Statistical Analysis, below).
The first trial of each discrimination stage was a discovery trial in which rats were allowed to dig in both pots, and to self-correct if digging in the wrong pot. Rats were only given one discovery trial. The discovery trial was included in the trials to criterion if the rat dug first in the correct pot, but not if the rat self-corrected an incorrect initial dig.
In the acute vortioxetine study, prior to the start of behavioral experiments on Day 8 of washout from PCP treatment, animals were randomly administered either 20% CD (Veh), […], or 64 mg/kg modafinil 30 min p.o. as described above (included as a positive control). Thus, the treatment groups in the acute vortioxetine study were as follows: Veh/Veh, PCP/Veh, PCP/1 mg/kg vortioxetine, PCP/3 mg/kg vortioxetine, PCP/10 mg/kg vortioxetine, or PCP/64 mg/kg modafinil.
Food dosing lasted from the first day of sub-chronic PCP administration and until the last day of the washout period (total of 14 days). After the end of the washout period where behavioral testing started, rats were fed with the same conditioned diet, however, under food restriction (∼11 g of diet per day per rat). In addition, some PCP-treated animals were fed vehicle food, but received acute injections of either 10 mg/kg vortioxetine, or 64 mg/kg modafinil, as described above. The treatment groups for the subchronic vortioxetine administration study were as follows: Veh/Veh, PCP/Veh, PCP/0.22 g/kg vortioxetine food, PCP/1.8 g/kg vortioxetine food, PCP/10 mg/kg vortioxetine 1 h s.c., or PCP/64 mg/kg 30 min p.o.
A third experiment was conducted to examine the effects of acute SERT inhibition or 5-HT3 receptor antagonism on subPCP-induced AST impairments. […]

Assay [7] has as its target sigma 1 receptors. The arrangement: method as in Sanchez et al., 2003. To be noted: ref Sanchez et al., 2003; cited from earlier work.
Assay [8] deals with SERT. To be noted: ref Pehrson et al., 2015; cited from earlier work.
Where [9] appears, read: acute vortioxetine study, 64 mg/kg 30 min p.o., vs PCP/Veh.
Setting [10] is: subchronic vortioxetine study, acute 64 mg/kg, p < 0.001.

pKi: −log10 of the molar value. Like-named read-outs stand apart in the source and are kept apart here. Marks after values point to notes of the source that are not given here.

The source of these data is article PMC5845537 (Frontiers in Pharmacology, 2018).

T1 sequence (Q9Z0U4 17-960 limits assumed): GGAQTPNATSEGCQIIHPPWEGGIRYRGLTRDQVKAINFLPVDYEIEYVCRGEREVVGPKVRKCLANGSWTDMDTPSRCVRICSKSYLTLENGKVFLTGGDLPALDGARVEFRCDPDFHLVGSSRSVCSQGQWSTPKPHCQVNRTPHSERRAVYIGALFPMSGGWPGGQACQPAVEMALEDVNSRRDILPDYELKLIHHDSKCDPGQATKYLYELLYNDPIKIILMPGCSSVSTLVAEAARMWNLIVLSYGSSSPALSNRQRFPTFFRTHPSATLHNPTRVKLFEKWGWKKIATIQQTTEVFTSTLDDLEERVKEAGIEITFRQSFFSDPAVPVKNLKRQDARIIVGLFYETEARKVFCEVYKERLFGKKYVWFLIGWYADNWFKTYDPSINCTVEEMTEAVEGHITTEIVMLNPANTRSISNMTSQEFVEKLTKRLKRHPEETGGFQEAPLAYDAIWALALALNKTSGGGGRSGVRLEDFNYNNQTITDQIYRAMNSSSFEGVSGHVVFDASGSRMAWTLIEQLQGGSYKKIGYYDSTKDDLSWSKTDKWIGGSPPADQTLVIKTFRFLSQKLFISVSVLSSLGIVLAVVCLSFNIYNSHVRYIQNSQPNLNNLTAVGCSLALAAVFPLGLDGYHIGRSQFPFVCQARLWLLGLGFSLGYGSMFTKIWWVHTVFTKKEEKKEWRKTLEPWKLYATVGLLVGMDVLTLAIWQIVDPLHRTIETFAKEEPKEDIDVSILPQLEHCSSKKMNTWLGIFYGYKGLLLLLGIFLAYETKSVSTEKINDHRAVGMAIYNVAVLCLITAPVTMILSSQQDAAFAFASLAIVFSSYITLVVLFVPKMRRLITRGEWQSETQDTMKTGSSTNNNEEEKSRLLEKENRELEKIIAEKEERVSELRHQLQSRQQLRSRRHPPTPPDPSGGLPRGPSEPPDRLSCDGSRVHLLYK
T1 sequence (O88871 41-940 partner): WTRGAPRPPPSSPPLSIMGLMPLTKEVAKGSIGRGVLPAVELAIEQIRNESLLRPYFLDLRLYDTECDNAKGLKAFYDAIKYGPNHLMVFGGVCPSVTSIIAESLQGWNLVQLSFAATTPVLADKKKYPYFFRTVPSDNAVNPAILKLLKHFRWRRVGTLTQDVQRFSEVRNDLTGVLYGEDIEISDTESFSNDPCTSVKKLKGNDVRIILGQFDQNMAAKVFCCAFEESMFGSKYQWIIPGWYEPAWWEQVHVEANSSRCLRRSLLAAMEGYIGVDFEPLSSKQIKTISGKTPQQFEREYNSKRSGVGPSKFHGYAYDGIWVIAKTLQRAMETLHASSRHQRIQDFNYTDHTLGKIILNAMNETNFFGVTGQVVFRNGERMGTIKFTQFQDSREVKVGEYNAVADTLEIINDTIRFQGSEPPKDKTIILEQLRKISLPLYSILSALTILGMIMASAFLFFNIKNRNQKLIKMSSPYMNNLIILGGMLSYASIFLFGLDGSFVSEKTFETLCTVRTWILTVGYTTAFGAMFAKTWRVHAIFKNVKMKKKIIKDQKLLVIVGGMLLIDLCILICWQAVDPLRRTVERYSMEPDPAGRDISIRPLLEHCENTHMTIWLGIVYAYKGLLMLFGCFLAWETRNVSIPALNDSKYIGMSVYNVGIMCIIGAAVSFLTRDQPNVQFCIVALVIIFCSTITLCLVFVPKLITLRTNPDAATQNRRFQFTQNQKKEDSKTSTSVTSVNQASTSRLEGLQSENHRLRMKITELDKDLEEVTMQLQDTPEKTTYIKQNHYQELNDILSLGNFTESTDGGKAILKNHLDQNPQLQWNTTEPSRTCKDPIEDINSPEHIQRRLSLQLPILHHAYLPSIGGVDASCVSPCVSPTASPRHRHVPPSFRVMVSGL

In the case of `C[C@]12N[C@H](Cc3ccccc31)c1ccccc12` [MK-801], the “GABAA receptor binding ([3H]-muscimol, [3H]-flunitrazepam)” value in assay [1] is “significant increase”.

For `CCCN(CCC)CCc1ccc(OC)c(OCCc2ccccc2)c1` [NE-100], in assay [2] (sigma1 receptor antagonist given with fluvoxamine), the “effect on fluvoxamine's reversal of OR deficits” value was “blocked this effect”.

With `FC(F)c1ncn2c1Cn1ncnc1-c1cc(Br)ccc1-2` [RO4938581], in assay [3], the “attenuation of subPCP-induced impairment, ED discrimination of the AST” value is listed as “significantly attenuated” and the “attenuation of subPCP-induced impairment, EDR discrimination of the AST” value is on record as “significantly attenuated”.

Regarding `C[C@H](NC[C@H](O)CP(=O)(O)CC1CCCCC1)c1ccc(Cl)c(Cl)c1` [[^3H]CGP54626], the “GABAB receptors Bmax” value was 414 ± 33^a fmol/mg in assay [4] (treatment group PCP/Veh), 342 ± 27^a,c fmol/mg in assay [4] (treatment group PCP/Vor), 541 ± 38 fmol/mg in assay [4] (treatment group Veh/Veh) and 475 ± 34 fmol/mg in assay [4] (treatment group Veh/Vor). Besides, the “GABAB receptors pKD ([3H]CGP54626)” value worked out at 8.7 ± 0.08 in assay [4] (treatment group PCP/Veh), 8.7 ± 0.06 in assay [4] (treatment group PCP/Vor), 8.6 ± 0.04 in assay [4] (treatment group Veh/Veh) and 8.6 ± 0.08 in assay [4] (treatment group Veh/Vor).

Regarding `NCc1cc(=O)[nH]o1` [[^3H]muscimol], the “GABAA receptors pKD ([3H]muscimol)” value in assay [5] (treatment group PCP/Veh) was 7.8 ± 0.03; in assay [5] (treatment group PCP/Vor), 7.6 ± 0.03^a,b,c; in assay [5] (treatment group Veh/Veh) it was 7.7 ± 0.03; in assay [5] (treatment group Veh/Vor), 7.8 ± 0.06.

Usually pKi stands for −log10 of the Ki, conventionally taken in molar units. Consider `CN(C)CCC[C@@]1(c2ccc(F)cc2)OCc2cc(C#N)ccc21` [escitalopram], for which the “trials to criterion vs vehicle/vehicle or PCP/vehicle, EDR discrimination” value in assay [6] (acute 0.5 mg/kg 1 h s.c.) is “did not differ”. For the same molecule, the “trials to criterion vs PCP/vehicle, ED discrimination” value (from here on “trials to criterion vs PCP/vehicle”) in assay [6] (acute 0.5 mg/kg 1 h s.c., p < 0.001) is “significant reductions”. Further, the pKi in assay [7] is around 7.00.

Consider `COCCCC/C(=N\OCCN)c1ccc(C(F)(F)F)cc1` [fluvoxamine], for which the “SERT occupancy ED80” value in assay [8] is reported as “≈ 1.8 mg/kg”. Besides, the “effect on deficits in OR performance” value in assay [2] is “reversed deficits”. Further, in assay [2] (single supra-pharmacological dose 20 mg/kg), the “effect on subPCP-induced impairments in OR performance” value was “improved”.

On to `NC(=O)C[S+]([O-])C(c1ccccc1)c1ccccc1` (centres unmarked) [modafinil, Modafinil], for which, in assay [6] (setting [9]), the “reversal of subPCP-induced impairment, ED discrimination (trials to criterion)” value is reported as “significantly reversed” and the “reversal of subPCP-induced impairment, EDR discrimination (trials to criterion)” value was “neither acute vortioxetine nor modafinil significantly reversed”. For the same molecule, the “trials to criterion vs PCP/vehicle” value in assay [6] (ondansetron/escitalopram study, 64 mg/kg 30 min p.o., p < 0.001) is “significant reductions”. Moreover, in assay [6] (ondansetron/escitalopram study, 64 mg/kg 30 min p.o., p < 0.05), the “trials to criterion vs vehicle/vehicle or PCP/vehicle, EDR discrimination” value is reported as “significantly fewer trials”. Also, in assay [6] (setting [10]), the “AST performance in subPCP-treated rats, ED” value is listed as “significantly improved performance” and the “AST performance in subPCP-treated rats, EDR” value was “significantly improved performance”.

As to `Cc1nccn1CC1CCc2c(c3ccccc3n2C)C1=O` (centres unmarked) [ondansetron], the “trials to criterion vs vehicle/vehicle or PCP/vehicle, EDR discrimination” value in assay [6] (acute 1.6 mg/kg 1 h s.c.) is given as “did not differ”. Moreover, the “trials to criterion vs PCP/vehicle” value in assay [6] (acute 1.6 mg/kg 1 h s.c., p < 0.05) was “significant reductions”.

For the molecule `Fc1ccc([C@@H]2CCNC[C@H]2COc2ccc3c(c2)OCO3)cc1` [paroxetine], the “effect on deficits in OR performance” value in assay [2] was “but not paroxetine reversed deficits”. The “effect on subPCP-induced impairments in OR performance” value in assay [2] (single supra-pharmacological dose 10 mg/kg) was “improved”.
